Experimental data published in ChEMBL document CHEMBL1157085, “Cytoglobosins A-G, cytochalasans from a marine-derived endophytic fungus, Chaetomium globosum QEN-14” (J Nat Prod, 2010).
Activity calls are given as the source filed them. The rule behind the calls is not given here.

How the values were obtained:
Assay type in all cases: functional, cell-based
KB = assay: Cytotoxicity against human KB cells
P388 = assay: Cytotoxicity against mouse P388 cells
A549 = assay: Cytotoxicity against human A549 cells

Row | Compound | Activity (KB) | Activity (P388) | IC50 (A549) [nM]
1 | CC1=C(C)[C@H]2[C@H](Cc3c[nH]c4ccccc34)NC(=O)[C@]23C(=O)/C=C/[C@H](O)[C@H](O)/C(C)=C/[C@@H](C)C/C=C/[C@H]3[C@@H]1O [CYTOGLOBOSIN C] | inactive | inactive | 2260
2 | C=C1[C@@H](C)[C@H]2[C@H](Cc3c[nH]c4ccccc34)NC(=O)[C@]23C(=O)C[C@H]2C(=O)C(O)=C(C)[C@@H]2[C@@H](C)C/C=C/[C@H]3[C@@H]1O [CYTOGLOBOSIN A] | inactive | inactive | > 10000
3 | C=C1[C@@H](C)[C@H]2[C@H](Cc3c[nH]c4ccccc34)NC(=O)[C@]23C(=O)/C=C/[C@H](O)[C@H](O)/C(C)=C/[C@@H](C)C/C=C/[C@H]3[C@@H]1O [CYTOGLOBOSIN B] | inactive | inactive | > 10000
4 | CC1=C[C@@H]2/C=C/C[C@H](C)/C=C(\C)[C@@H](O)[C@@H](O)/C=C/C(=O)[C@]23C(=O)N[C@@H](Cc2c[nH]c4ccccc24)[C@@H]3[C@@H]1C [CYTOGLOBOSIN D] | inactive | inactive | 2550
5 | C/C1=C\[C@@H](C)C/C=C/[C@H]2C=C(CO)[C@@H](C)[C@H]3[C@H](Cc4c[nH]c5ccccc45)NC(=O)[C@]32C(=O)CCC(=O)C1=O [CYTOGLOBOSIN E] | inactive | inactive | > 10000
